Experimental data reported in patent US10849875B2, “Cancer specific lipid targeted peptidomimetics” (University of Houston System, priority 2015, dated 2020).
Positions of bridges follow the written chain, without caps; N, C: chain ends. Non-standard residues stand in square brackets, D forms with d. Residues, ends and D or L forms follow the SMILES beside them. Chains are numbered I, II in the order given. Gly(N-piperonyl) = O=C(O)CNCc1ccc2c(c1)OCO2; N(4-MeOBn)Gly = COc1ccc(CNCC(=O)O)cc1; Nrpe = C[C@@H](NCC(=O)O)c1ccccc1; Nlys = NCCCCNCC(=O)O

Tests used:
Assay type in all cases: cell-based, human
HCC4017 cells = assay: MTS cell viability assay
Protocol: After confirming the binding and specificity of the PPS1 on HCC4017 lung cancer cells, whether this compound has any biological effects on HCC4017 lung cancer cells was assayed. The gold standard cell viability (MTS) assay was used. […] On one of the repetitive experiments of this assay, Cystinylated-PPS1 compound was included (FIG. 6A). This was the intermediate compound used to attach the FITC-malemide for binding assays described previously. […] The only difference between this Cystinylated-PPS1 and the original PPS1 compound was just a single cysteine amino acid at the C-terminal. It was difficult to rationalize having a single amino acid residue at the terminus of the sequence causing a large difference of activity, other possibilities were considered. Cysteine has sulfur (—SH) group on the side chain and two of these can easily form disulfide bonds. […]
A homo-dimeric version of PPS1 was synthesized. […] The resulting dimeric version of the PPS1 compound, PPS1D1 (FIG. 6C), and the analogous dimeric versions of scrambled PC2, PC2D1 (FIG. 6E), and control compound C462, PC462D1 (FIG. 82), were then evaluated for activity. […] As described above, HCC4017 cells and HBEC30kt and HBEC3kt cells were grown in 96 well plates on day 1, treated serial dilutions of PPS1, PPS1D1, C462 and C462D1 on day 2, and viable cell count was measured using MTS reagent on day 3. […]

HBEC30KT cells = assay: Cell staining with Hoechst 33342 and propidium iodide (membrane integrity); conditions: 20 μM
Protocol: (§1) It was evaluated how PPS1D1 affects viability of these PS expressing cancer cell lines. While there are difficulties of narrowing down the exact mechanism of action of a compound targeting cell membrane lipids, whether PPS1D1 has any effect on cell membrane integrity was evaluated. Cells were treated with standard DNA staining dyes Propidium iodide (PI) and Hoechst 33342. While both bind DNA, only Hoechst is cell permeable. Therefore, when treating live cells only Hoechst will stain the nucleus while PI will stain the nucleus only if the cell membrane integrity is compromised. All the lung cancer cell lines and normal HBEC30KT cells were treated with these dyes in the presence of PPS1D1 (at 1 μM and 20 μM) or a control compound PC462D1 at 20 μM and evaluated fluorescence by microscopy without fixation. […] These observations indicate that 20 μM PPS1D1 is selectively cytotoxic to PS-positive lung cancer cells.
(§2) 10,000 cells of HCC4017, H460, HCC95, H1693,H1395 and HBEC30KT were plated on chamber slides (Lab-Tek, Thermo Fisher, MA). On second day, cells were treated with PPS (1 μM and 20 μM), control PC462D1 (20 μM) and 0.005% Benzalkonium chloride (BAC) in RPMI medium with 10% FBS containing 3% BSA (KSFM media with 3% BSA for HBEC30KT). Chamber slides were washed with PBS three times. Cells were then stained with Hoechst 33342 (10 μg/ml) for 30 min in dark. Chamber slides were washed with 3× PBS. Cells were then stained with propidium iodide (1 mg/ml) for 15 mins. Cells were washed with 3× PBS and imaged using Fluorescence Microscope (Olympus BX-53).

[1] = system: HCC4017, H460, HCC95, H1693, H1395 lung cancer cell lines; assay: as above
Protocol: as §1, §2

SMILES: COc1ccc(CN(CC(=O)N(CCCCN)CC(=O)N[C@@H](CCCCN)C(=O)N[C@H](CCCCN)C(=O)N[C@@H](CCSC)C(=O)NCCCC[C@H](NC(=O)[C@H](CCSC)NC(=O)[C@@H](CCCCN)NC(=O)[C@H](CCCCN)NC(=O)CN(CCCCN)C(=O)CN(Cc2ccc(OC)cc2)C(=O)CN(C(=O)CN(Cc2ccc3c(c2)OCO3)C(=O)CN[C@H](C)c2ccccc2)[C@H](C)c2ccccc2)C(N)=O)C(=O)CN(C(=O)CN(Cc2ccc3c(c2)OCO3)C(=O)CN[C@H](C)c2ccccc2)[C@H](C)c2ccccc2)cc1 [PPS1D1] (I: H-[Nrpe][Gly(N-piperonyl)][Nrpe][N(4-MeOBn)Gly][Nlys]K[dK]MK-NH2 / II: H-[Nrpe][Gly(N-piperonyl)][Nrpe][N(4-MeOBn)Gly][Nlys]K[dK]M; amide I:9-II:C; N-terminus assumed)
- activity at different times post treatment (HCC4017 cells; HCC4017, tested at 6, 12 and 24 hours post treatment): somewhat similar
- IC50 (HCC4017 cells; MTS, HCC4017): ~10 µM
- PI staining of normal HBEC30KT cells (HBEC30KT cells): not observed
- PI / Hoechst staining of lung cancer cells ([1]; 1 μM): only show staining with Hoechst dye
- PI / Hoechst staining of lung cancer cells ([1]; 20 μM): staining of cells with PI
